Reference: ChEMBL document CHEMBL5465560, “Selectivity Literature for EUbOPEN Chemogenomic Library” (2024)
Each block holds one compound with its values, some of them ahead of it.

Key:
[1] = tested on: Mast/stem cell growth factor receptor Kit (Homo sapiens), P10721 [V559D,T670I]; experiment: (§1) Selectivity interaction (Ambit KINOMEscan and KiNATiv profiling in Jurkat cells) EUB0000090b KIT; format: cell-based; details: at 1 µM
[2] = tested on: Mast/stem cell growth factor receptor Kit (Homo sapiens), P10721 [D816V]; experiment: as §1; format: cell-based; details: at 1 µM
Chain of Mast/stem cell growth factor receptor Kit (Homo sapiens), P10721 [D816V] (P10721 whole entry D816V): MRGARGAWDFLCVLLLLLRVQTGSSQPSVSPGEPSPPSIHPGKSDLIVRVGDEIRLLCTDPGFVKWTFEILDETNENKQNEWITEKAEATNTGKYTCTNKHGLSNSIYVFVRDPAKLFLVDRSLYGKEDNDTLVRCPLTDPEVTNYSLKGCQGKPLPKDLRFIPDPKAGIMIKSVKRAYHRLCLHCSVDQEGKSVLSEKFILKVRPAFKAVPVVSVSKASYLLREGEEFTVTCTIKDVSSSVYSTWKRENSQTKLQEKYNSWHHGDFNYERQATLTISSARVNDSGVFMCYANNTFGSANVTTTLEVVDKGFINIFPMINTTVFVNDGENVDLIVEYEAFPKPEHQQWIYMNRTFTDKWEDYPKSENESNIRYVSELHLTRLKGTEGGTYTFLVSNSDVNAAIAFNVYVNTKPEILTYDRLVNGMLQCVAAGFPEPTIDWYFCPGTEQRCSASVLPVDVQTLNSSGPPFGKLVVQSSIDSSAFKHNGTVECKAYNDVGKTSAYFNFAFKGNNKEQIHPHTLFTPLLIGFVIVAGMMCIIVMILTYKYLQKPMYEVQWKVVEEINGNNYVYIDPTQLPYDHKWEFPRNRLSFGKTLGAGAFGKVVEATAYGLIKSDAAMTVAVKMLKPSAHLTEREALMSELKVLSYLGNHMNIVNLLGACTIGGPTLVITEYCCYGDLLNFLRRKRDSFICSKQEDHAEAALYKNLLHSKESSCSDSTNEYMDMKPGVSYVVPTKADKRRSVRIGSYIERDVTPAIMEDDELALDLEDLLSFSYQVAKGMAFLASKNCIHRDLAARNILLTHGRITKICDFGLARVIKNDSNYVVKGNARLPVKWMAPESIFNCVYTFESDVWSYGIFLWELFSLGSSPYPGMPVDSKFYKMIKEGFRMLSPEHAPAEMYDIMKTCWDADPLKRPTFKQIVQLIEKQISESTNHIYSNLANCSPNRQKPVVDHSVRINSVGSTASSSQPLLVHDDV

[3] = tested on: Mast/stem cell growth factor receptor Kit (Homo sapiens), P10721 [L576P]; experiment: as §1; format: cell-based; details: at 1 µM
Chain of Mast/stem cell growth factor receptor Kit (Homo sapiens), P10721 [L576P] (P10721 whole entry L576P): as the sequence (P10721 whole entry D816V) above, with L576P, V816D counted along it

[4] = tested on: Mast/stem cell growth factor receptor Kit (Homo sapiens), P10721 [V559D]; experiment: as §1; format: cell-based; details: at 1 µM
Chain of Mast/stem cell growth factor receptor Kit (Homo sapiens), P10721 [V559D] (P10721 whole entry V559D): as the sequence (P10721 whole entry D816V) above, with V559D, V816D counted along it

[5] = tested on: Mast/stem cell growth factor receptor Kit (Homo sapiens), P10721 [V559D,V654A]; experiment: as §1; format: cell-based; details: at 1 µM
Chain of Mast/stem cell growth factor receptor Kit (Homo sapiens), P10721 [V559D,V654A] (P10721 whole entry V559D/V654A): as the sequence (P10721 whole entry D816V) above, with V559D, V654A, V816D counted along it

[6] = tested on: Mast/stem cell growth factor receptor Kit (Homo sapiens), P10721 [A829P]; experiment: as §1; format: cell-based; details: at 1 µM
[7] = biological target: Mast/stem cell growth factor receptor Kit (Homo sapiens, UniProt P10721); experiment: as §1; format: cell-based; details: at 1 µM
[8] = tested on: Mast/stem cell growth factor receptor Kit (Homo sapiens), P10721 [D816H]; experiment: as §1; format: cell-based; details: at 1 µM
[9] = biological target: Tyrosine-protein kinase Yes (Homo sapiens) (UniProt P07947); experiment: Selectivity interaction (KinomeScan (DiscoverX)) EUB0000655a YES1; details: at 10 µM
[10] = biological target: T1, Serine/threonine-protein kinase Sgk3 (Homo sapiens) (UniProt Q96BR1); experiment: Selectivity interaction (KinomeScan (DiscoverX)) EUB0000595a SGK3; details: at 10 µM
T1 sequence (whole entry): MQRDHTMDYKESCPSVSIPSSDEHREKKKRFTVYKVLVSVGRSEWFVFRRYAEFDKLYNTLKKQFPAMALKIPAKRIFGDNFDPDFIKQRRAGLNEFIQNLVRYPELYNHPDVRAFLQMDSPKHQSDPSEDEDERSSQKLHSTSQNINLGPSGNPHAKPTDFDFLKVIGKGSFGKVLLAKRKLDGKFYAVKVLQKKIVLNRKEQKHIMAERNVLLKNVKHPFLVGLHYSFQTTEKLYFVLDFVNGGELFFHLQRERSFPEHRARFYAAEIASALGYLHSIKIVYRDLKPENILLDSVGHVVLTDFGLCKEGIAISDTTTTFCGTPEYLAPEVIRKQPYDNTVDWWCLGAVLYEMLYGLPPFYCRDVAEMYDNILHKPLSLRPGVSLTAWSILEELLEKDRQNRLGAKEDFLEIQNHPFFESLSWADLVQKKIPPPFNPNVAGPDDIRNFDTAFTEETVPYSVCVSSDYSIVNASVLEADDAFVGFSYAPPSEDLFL

[11] = biological target: Proto-oncogene tyrosine-protein kinase ROS (Homo sapiens) (UniProt P08922); experiment: Selectivity interaction (KinomeScan (DiscoverX)) EUB0000595a ROS1; details: at 10 µM
[12] = biological target: 5'-AMP-activated protein kinase catalytic subunit alpha-2 (Homo sapiens) (UniProt P54646); experiment: Selectivity interaction (Kinase panel (KiNativ target engagement assay in Jurkat cells)) EUB0001635a PRKAA2; format: cell-based; details: at 1 µM
Chain of 5'-AMP-activated protein kinase catalytic subunit alpha-2 (Homo sapiens) (P54646 whole entry, looked up): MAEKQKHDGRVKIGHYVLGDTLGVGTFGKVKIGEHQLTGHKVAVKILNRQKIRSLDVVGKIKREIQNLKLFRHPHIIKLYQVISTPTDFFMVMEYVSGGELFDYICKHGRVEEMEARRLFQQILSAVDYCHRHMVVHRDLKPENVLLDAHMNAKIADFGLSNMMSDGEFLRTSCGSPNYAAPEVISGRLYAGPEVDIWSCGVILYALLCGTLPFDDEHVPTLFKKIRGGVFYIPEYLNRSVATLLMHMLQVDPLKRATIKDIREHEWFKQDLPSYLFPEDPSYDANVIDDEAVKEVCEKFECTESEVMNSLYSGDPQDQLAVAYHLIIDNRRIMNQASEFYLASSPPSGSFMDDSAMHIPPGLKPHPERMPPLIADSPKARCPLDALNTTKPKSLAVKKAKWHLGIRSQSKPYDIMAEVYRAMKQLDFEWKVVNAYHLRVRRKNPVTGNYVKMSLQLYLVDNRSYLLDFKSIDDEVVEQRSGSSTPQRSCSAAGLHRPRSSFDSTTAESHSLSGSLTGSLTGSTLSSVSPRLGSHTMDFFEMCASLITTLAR

[13] = biological target: Cyclin-dependent kinase 3 (Homo sapiens) (UniProt Q00526); details: at 10 µM
Chain of Cyclin-dependent kinase 3 (Homo sapiens) (Q00526 whole entry, looked up, the tested form may be a part): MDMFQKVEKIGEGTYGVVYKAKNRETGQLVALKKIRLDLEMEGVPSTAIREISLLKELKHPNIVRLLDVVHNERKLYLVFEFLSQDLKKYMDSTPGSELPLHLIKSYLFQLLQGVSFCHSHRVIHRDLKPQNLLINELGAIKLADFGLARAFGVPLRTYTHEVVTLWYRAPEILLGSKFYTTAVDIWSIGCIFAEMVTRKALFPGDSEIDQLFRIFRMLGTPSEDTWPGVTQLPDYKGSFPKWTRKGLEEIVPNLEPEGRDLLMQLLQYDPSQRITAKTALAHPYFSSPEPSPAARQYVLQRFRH

[14] = Selectivity interaction (PWWP, WD40, and Tudor domain panel (DSLS measurements, literature)) EUB0000270b WDR20
[15] = biological target: Fibroblast growth factor receptor 3 (Homo sapiens, UniProt P22607); experiment: Selectivity interaction (ProQinase) EUB0000171b FGFR3; details: at 1 µM
[16] = biological target: 5-hydroxytryptamine receptor 2A (Homo sapiens, UniProt P28223); experiment: Selectivity interaction (Panel of kinases, GPCRs, ion channels and transporters (enzymatic assay)) EUB0000223bCl HTR2A
[17] = biological target: Tyrosine-protein kinase ABL1 (Homo sapiens, UniProt P00519); experiment: Selectivity interaction (Kinase panel (33PanQinase(R) Activity Assay)) EUB0000877a ABL1
[18] = biological target: 5'-AMP-activated protein kinase catalytic subunit alpha-1 (Homo sapiens, UniProt Q13131); experiment: Selectivity interaction (KinomeScan (DiscoverX)) EUB0000311b PRKAA1; details: at 1 µM
[19] = biological target: T2, Protein kinase C epsilon type (Homo sapiens) (UniProt Q02156); experiment: Selectivity interaction (Kinase panel (Z-LYTE Assay)) EUB0001632a PRKCE; details: at 10 µM
T2 sequence (whole entry): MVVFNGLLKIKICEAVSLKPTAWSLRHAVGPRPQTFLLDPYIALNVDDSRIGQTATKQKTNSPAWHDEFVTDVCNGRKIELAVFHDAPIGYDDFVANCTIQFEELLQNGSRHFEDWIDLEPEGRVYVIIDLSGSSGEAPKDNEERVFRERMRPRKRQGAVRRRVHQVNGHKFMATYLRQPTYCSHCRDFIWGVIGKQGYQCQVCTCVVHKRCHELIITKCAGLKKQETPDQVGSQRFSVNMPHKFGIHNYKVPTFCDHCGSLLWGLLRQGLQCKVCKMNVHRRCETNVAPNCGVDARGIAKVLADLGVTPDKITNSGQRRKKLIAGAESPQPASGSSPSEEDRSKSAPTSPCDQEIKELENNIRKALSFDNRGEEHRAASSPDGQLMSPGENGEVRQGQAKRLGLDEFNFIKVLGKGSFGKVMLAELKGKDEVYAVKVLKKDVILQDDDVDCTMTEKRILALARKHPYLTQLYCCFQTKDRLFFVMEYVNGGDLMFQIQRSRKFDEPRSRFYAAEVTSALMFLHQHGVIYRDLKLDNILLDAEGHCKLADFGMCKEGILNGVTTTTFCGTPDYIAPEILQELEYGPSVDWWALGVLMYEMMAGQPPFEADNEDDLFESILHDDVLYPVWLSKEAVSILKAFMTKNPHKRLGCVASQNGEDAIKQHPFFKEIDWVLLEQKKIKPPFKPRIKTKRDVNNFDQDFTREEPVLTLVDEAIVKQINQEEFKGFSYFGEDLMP

SMILES: CN(C)C/C=C/C(=O)Nc1ccc(C(=O)N2CCCC(Nc3ncc(Cl)c(-c4c[nH]c5ccccc45)n3)C2)cc1 (centres undefined)
% of control [1]: 95% | % of control [2]: 92% | % of control [3]: 82% | % of control [4]: 82% | % of control [5]: 74% | % of control [6]: 75% | % of control [7]: 93% | % of control [8]: 76%

SMILES: CN(C)CCOc1ccc(-c2nc(-c3ccncc3)c(-c3ccc4c(c3)CC/C4=N\O)[nH]2)cc1
% of control [9]: 100%

SMILES: COCC(=O)NC/C=C/c1ccc2ncnc(Nc3ccc(Oc4ccc(C)nc4)c(C)c3)c2c1 [CP-724714]
% of control [10]: 100% | % of control [11]: 100%

SMILES: C=CC(=O)Nc1ccc(C(=O)Nc2[nH]nc3c2CN(C(=O)N[C@H](CN(C)C)c2ccccc2)C3(C)C)cc1
% of engagement [12]: 53.5%

SMILES: Cc1cc([C@@H](C)Nc2ccccc2C(=O)O)c2nc(N3CCOCC3)cc(=O)n2c1 [AZD-6482]
% of control [13]: 100%

dTagg [14]: 0 K
SMILES: Cc1cc(CN)cc(C)c1-c1ncn(C)c1-c1cncn1C

% of control [15]: 88%
SMILES: C=CC(=O)Nc1cccc(C(=O)Nc2ccc(Nc3cc(-c4[nH]c(SC)nc4C)ccn3)cc2)c1

SMILES: COc1cc(C(=O)N2CC[C@@H](O)[C@@H](N)C2)cc2nc(-c3cc4ccccc4n3CC3CC3)n(C)c12
pXC50 [16]: < 4.4 M

IC50 [17]: > 10 µM
SMILES: CCC(=O)N1CC[C@H](Nc2ncnc3c2CN(c2cnc(OC)c(C(F)(F)F)c2)CC3)C1 [LENIOLISIB]

% of control [18]: 7.5%
SMILES: CCc1ccccc1C(=O)Nc1n[nH]c2c(C)c(F)c(C3C(C#N)=C(C)N(C)C(C)=C3C#N)cc12 [BAY-3827]

% of control [19]: -8.31%
SMILES: Cn1cc(-n2cnc3c(NCc4nc5cc(Cl)c(Cl)cc5[nH]4)nc(N4CCOCC4)nc32)cn1
